Reference: US8716315B2, “Analogs of thalidomide as potential angiogenesis inhibitors” (The United States of America as represented by the …, priority 2001, dated 2014)

Assays:
[1] = tested on: HUVEC; assay: HUVEC MTT assay; assay type: cell-based; details: for inhibition, growth curves treated vs control wells: at about 72 hours
Method: HUVEC MTT assays were performed for the selected thalidomide analogs of the present invention to determine a rough estimate of the efficacy of such compounds in the inhibition of angiogenesis. For the MTT assay, 1.0 to 2.5×10^3 cells per well were plated in 96-well plates in 0.1 ml medium, in triplicate. After 24 hours, the cells were exposed to treatment for 5 days. One plate was analyzed every 24 hours by the addition of 20 μL of 5 mg/ml MTT solution (available from Sigma of St. Louis, Mo.) in PBS, to each well for 4 hours. The MTT solution was aspirated and 170 μL DMSO was added to each well to dissolve the formazan crystals. The absorbance at 540 nm was measured using a Biokinetics plate reader (available from Bio-Tek Instruments of Winooski, Vt.). Triplicate wells were assayed for each condition. The assay protocol described herein stems from Kruger et al., a protein kinase C inhibitor, inhibits endothelial cell proliferation and angiogenic hypoxic response, Invasion and Metastasis, 18(4): 209-218 (incorporated herein by reference).
The following results for the selected compounds were determined measured utilizing growth curves comparing control wells to treated wells using the MTT assays.

[2] = tested on: rat aortic rings; assay: Anti-angiogenic activity utilizing rat aortic rings; assay type: cell-based, rat (Sprague-Dawley); details: daily dosage of 100 μM, five-day treatment, image analysis vs DMSO control rings; for inhibition at 100 µM: Rattus norvegicus, 120 h, read-out: angiogenesis inhibition activity
Excerpt: The efficacy of selected thalidomide analogs of the present invention was studied by five-day treatment of rat aortic rings (utilizing Sprague-Dawley rats available from Charles River Labs) with varied doses of the analogs. A DMSO control was utilized (FIG. 1). The results, determined using image analysis comparing control rings versus the treated rings (using NIM Image software), of the studies are as follows: […]

[3] = tested on: human saphenous veins; assay: Anti-angiogenic activity utilizing human saphenous vein; assay type: cell-based; details: 336 h, daily dosages of 100 μM, 14 day treatment, image analysis, read-out: angiogenesis inhibition activity level
Method: The efficacy of 2-(1-hydroxymethyl-2,6-dioxo-piperidin-3-yl)-1,3-dihydro-2H-isoindole-1,3-dione (CPS11) was studied by 14 day treatment of human saphenous veins (obtained through an IRB-approved protocol, Surgery Brand NCI) with 100 μM doses of the analog. A CAI, carboxyamido-triazole, 12 μg/ml control was utilized.

[4] = Toxicology screen; details: i.p., single dose

SMILES | inhibition (cytostatic activity), growth curves treated vs control wells ([1]; 10 μM) | inhibition (cytostatic activity), growth curves treated vs control wells ([1]; 100 μM) | inhibition at 100 µM [2] | toxicology screen outcome ([4]; 200 mg/kg) | further results
O=C1NC(=O)C(N2C(=O)c3ccccc3C2=O)CC1O (centres unmarked) [CPS3, 2-(5-hydroxy-2,6-dioxo-piperidin-3-yl)-1H-isoindole-1,3[2H]-dione] | No cytostatic activity | No cytostatic activity | ~50% | – | melting point: 195 to 230 °C
O=C1CCC(N2C(=O)c3ccccc3C2=O)C(=O)N1CO (centres unmarked) [CPS11, 2-(1-hydroxymethyl-2,6-dioxo-piperidin-3-yl)-1,3-dihydro-2H-isoindole-1,3-dione] | – | – | 90% | – | inhibition at 100 µM [3]: 90%; inhibition, growth curves treated vs control wells ([1]; 10 μM): about 60%; inhibition, growth curves treated vs control wells ([1]; 100 μM): > 90%; toxicology screen outcome ([4]; 10 mg/kg): safe; toxicology screen outcome ([4]; 100 mg/kg): safe; sedation noted ([4]; 10 and 100 mg/kg): Some amount of sedation
Cc1ccc(C)c2c1C(=O)N(c1ccc(F)cc1F)C2=O [CPS42, 2-(2,4-difluorophenyl)-4,7-dimethyl-1H-isoindole-1,3(2H)-dione] | no such activity | about 44% | – | safe | sedation noted ([4]; 200 mg/kg): Slight sedation; time after injection at which sedation was noted ([4]; 200 mg/kg): ≤ 15 min
CCC1(N2C(=O)c3ccccc3C2=O)C(=O)NC(=O)N(C2CCCCC2)C1=O (centres unmarked) [CPS44, 1-cyclohexyl-5-ethyl-5-phthalimidobarbituric acid] | no such activity | about 50% | – | – | angiogenesis inhibition activity [2]: No inhibition of angiogenesis
CCC1(N2C(=O)c3c(F)c(F)c(F)c(F)c3C2=O)C(=O)NC(=O)N(c2ccccc2)C1=O (centres unmarked) [CPS45, 5-ethyl-1-phenyl-5-(tetrafluorophthalimido)barbituric acid] | > 90% | > 90% | 90% | lethal dose | time to death after treatment ([4]; 200 mg/kg): ≤ 2.5 h
O=C1c2c(F)c(F)c(F)c(F)c2C(=O)N1c1c[nH]c(=O)[nH]c1=O [CPS48, 5-(tetrafluorophthalimido)pyrimidine-2,4(1H,3H)-dione] | about 85% | about 85% | 90% | – | –
O=C1c2c(F)c(F)c(F)c(F)c2C(=O)N1c1ccc(F)cc1F [CPS49, 2-(2,4-difluoro-phenyl)-4,5,6,7-tetrafluoro-1H-isoindole-1,3(2H)-dione] | no such activity | about 90% | – | lethal dose | angiogenesis inhibition activity [2]: extensive angiogenesis inhibition activity; time to death after treatment ([4]; 200 mg/kg): ≤ 18 h
